Assay results: US20180271960A1, “METHOD TO TREAT CANCER USING ARGININE DELPETOR AND ORNITHINE DECARBOXYLASE (ODC) INHIBITOR” (Bio-Cancer Treatment International Ltd., priority 2015, published 2018)

Assays:
[1] = tested on: HCC2935 lung adenocarcinoma cell line; test: MTT assay, growth inhibition of HCC2935 cell line; assay type: cell-based; details: 72 h at 10 ng/μl only
Procedure: (§1) The inhibition ratio (IR) and the half maximal inhibitory concentration (IC50) values are determined by a MTT assay.

[2] = tested on: H1975 lung adenocarcinoma cell line; test: MTT assay, growth inhibition of H1975 cell line; assay type: cell-based; details: 48 h and 72 h at 0.5 ng/μl and 10 ng/μl
Procedure: as §1

arginine deiminase [ADI, reference compound]
growth inhibition effect (cell proliferation / toxicity) [1]: does not inhibit HCC2935 lung adenocarcinoma cell line proliferation
growth inhibition effect (cell proliferation) [2]: does not inhibit H1975 lung adenocarcinoma cell line proliferation
